Results: ChEMBL document CHEMBL5137055, “Near-Infrared Fluorescent Probes as Imaging and Theranostic Modalities for Amyloid-Beta and Tau Aggregates in Alzheimer's Disease” (J Med Chem, 2022)

Key:
[1] = molecular target: T1, Amyloid-beta precursor protein (Homo sapiens, UniProt P05067); assay: Binding affinity to human amyloid beta (1 to 42) monomer measured by fluorescence polarization assay
[2] = molecular target: T1, Amyloid-beta precursor protein; assay: Binding affinity to human amyloid beta (1 to 42) oligomer measured by fluorescence polarization assay
[3] = molecular target: T1, Amyloid-beta precursor protein; assay: Binding affinity to human amyloid beta (1 to 42) aggregates measured by fluorescence polarization assay
Albumin = Albumin (Bos taurus, UniProt P02769); assay: Binding affinity to bovine serum albumin
Chain of Albumin (P02769 whole entry): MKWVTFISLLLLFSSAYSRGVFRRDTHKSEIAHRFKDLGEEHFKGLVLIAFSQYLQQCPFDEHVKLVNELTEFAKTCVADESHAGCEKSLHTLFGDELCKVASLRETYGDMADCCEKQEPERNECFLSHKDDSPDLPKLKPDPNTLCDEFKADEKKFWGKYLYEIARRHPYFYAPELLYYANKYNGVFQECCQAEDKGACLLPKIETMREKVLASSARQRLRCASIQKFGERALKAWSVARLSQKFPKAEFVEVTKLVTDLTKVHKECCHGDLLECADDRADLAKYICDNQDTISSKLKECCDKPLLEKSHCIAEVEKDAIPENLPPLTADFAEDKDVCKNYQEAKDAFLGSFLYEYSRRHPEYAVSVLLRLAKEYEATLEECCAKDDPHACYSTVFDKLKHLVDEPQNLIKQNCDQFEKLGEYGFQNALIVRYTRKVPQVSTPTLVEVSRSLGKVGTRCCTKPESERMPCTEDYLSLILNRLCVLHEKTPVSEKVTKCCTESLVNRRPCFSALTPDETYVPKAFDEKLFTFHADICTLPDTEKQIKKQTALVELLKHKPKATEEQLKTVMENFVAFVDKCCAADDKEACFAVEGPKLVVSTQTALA

[4] = molecular target: T1, Amyloid-beta precursor protein; assay: Displacement of [125I]IMPY from amyloid beta (1 to 42) (unknown origin) measured by competitive radioligand binding assay
[5] = molecular target: T1, Amyloid-beta precursor protein; assay: Displacement of [125I]IMPY from amyloid beta (1 to 40) (unknown origin) measured by competitive radioligand binding assay
[6] = Drug uptake in brain of Tg mouse at 2 mins post injection; assay type: ADME, tissue-based; details: read-out: Drug uptake
[7] = Binding affinity to soluble amyloid beta (unknown origin); parameters: species or system Homo sapiens
[8] = Binding affinity to insoluble amyloid beta (unknown origin); parameters: species or system Homo sapiens
[9] = Binding affinity to mouse brain amyloid beta plaques
[10] = Binding affinity to amyloid beta (unknown origin) aggregates; parameters: species or system Homo sapiens
[11] = Binding affinity to amyloid beta (unknown origin) monomer; parameters: species or system Homo sapiens
[12] = Binding affinity to amyloid beta (unknown origin) oligomer; parameters: species or system Homo sapiens

T1 sequence (P05067 whole entry): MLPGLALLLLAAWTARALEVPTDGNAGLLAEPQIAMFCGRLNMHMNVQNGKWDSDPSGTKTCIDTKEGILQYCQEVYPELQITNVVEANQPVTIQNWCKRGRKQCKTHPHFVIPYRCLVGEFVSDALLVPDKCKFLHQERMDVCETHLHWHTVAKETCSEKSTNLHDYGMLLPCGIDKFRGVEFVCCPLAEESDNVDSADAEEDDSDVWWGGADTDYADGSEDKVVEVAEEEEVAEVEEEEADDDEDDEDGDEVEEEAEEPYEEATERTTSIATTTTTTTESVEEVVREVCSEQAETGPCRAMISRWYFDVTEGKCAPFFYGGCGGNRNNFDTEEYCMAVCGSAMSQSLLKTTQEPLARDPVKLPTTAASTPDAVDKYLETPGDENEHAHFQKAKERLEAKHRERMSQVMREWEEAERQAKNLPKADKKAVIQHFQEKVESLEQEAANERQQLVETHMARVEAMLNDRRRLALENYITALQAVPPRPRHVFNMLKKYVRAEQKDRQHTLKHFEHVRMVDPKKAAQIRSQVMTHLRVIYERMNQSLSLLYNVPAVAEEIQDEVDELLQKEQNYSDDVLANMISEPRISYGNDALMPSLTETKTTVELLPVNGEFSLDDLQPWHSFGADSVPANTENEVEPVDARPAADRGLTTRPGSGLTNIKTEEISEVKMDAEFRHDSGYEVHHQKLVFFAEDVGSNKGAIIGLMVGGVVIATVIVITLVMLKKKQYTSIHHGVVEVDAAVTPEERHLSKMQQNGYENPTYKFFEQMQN

For `COc1cc(/C=C/C(=O)/C(Cc2cn(CCCCCCNC(=O)CCNC(=O)CCNC(=O)CO[C@H]3CC[C@@]4(C)C(=CC[C@H]5[C@@H]6CC[C@H]([C@@H](C)CCCC(C)C)[C@@]6(C)CC[C@@H]54)C3)nn2)=C(O)/C=C/c2ccc(O)c(OC)c2)ccc1O`, the Kd [1] was 2030 nM, the Kd [2] was 2170 nM and the Kd [3] was 830 nM. For the same compound, the Kd (Albumin) was 71000 nM.

Compound `CN1C(=O)C(=C/C=C/C=C/c2ccc(N(C)C)cc2)C(=O)N(C)C1=O` has a Ki [4] of 13.7 nM, a Kd [5] of 23.9 nM and a tissue uptake at 2 min [6] of 0.83 %ID/g.

With `CCN(CC)c1ccc(/C=C/C2=[O+][B-](F)(F)OC(/C=C/c3ccc(N(CC)CC)nc3)=C2CCCOc2c(C)cccc2C)cn1` the Kd [7] was 7.5 nM and the Kd [8] was 506 nM.

With `CN(C)c1ccc(/C=C/C2=[O+][B-](F)(F)OC(/C=C/c3ccc(OCCOCCF)cc3)=C2)cc1` the Kd [9] was 19.7 nM.

`CC1=CC(C)=[N+]2C1=C(CCCN1CCNc3ccccc31)c1c(C)cc(/C=C/c3ccc(N(C)C)s3)n1[B-]2(F)F` gave a Kd [10] of 18 nM, a Kd [11] of 6 nM and a Kd [12] of 27 nM.
